Results from patent US4263318A, “N-alkoxy- and N-aryloxysulfinylcarbamate esters” (priority 1979, dated 1981).
Where two headings read alike, the source gives them in different places.

Key:
Format in all cases: in vivo
[1] = test system: house flies, Musca domestica; test: Insecticidal activity against house flies (topical on the notum, mortality at 24 h); details: for LD50: Musca domestica, topical, read-out: House flies LD50
Procedure: (§1) Representative compounds of the N-aryloxy- and N-alkoxysulfinylcarbamate esters of the invention were tested for insecticidal activity against two insect species, house flies, Musca domestica, and mosquito larvae, Culex pipiens. Stock 1% concentrated solutions of each of the test compounds were made in acetone, and such solutions diluted with acetone to a concentration of 0.001-0.1%. House files were treated topically on the notum by 1 μL of each of the diluted acetone solutions and percent mortality was counted 24 hours after application. Insects were held at a constant temperature of 60° F. Larvicidal activity was determined by applying 1 ml of the acetone solutions in 100 ml of water containing 20 3rd instar mosquito larvae. Results are presented as LD50 in μg/g for house flies and LC50 in ppm for mosquito larvae.

[2] = test system: mosquito larvae, Culex pipiens; test: Larvicidal activity against mosquito larvae; details: 1 ml acetone solution in 100 ml water containing 20 3rd instar larvae
Procedure: as §1

[3] = Mammalian toxicity, oral, Swiss white mice; details: mouse, in vivo
Procedure: (§2) Mammalian toxicity was determined against Swiss white mice.

Swiss white mice = test: Mammalian toxicity, oral, Swiss white mice; details: compared with aldicarb / carbofuran
Procedure: as §2

[4] = oral, corn oil carrier, read-out: Mice LD50
[5] = 1 μL acetone solution on the notum, mortality 24 hours after application, 60° F

| SMILES | LD50 ([1]; 24 h) [mg/kg] | Culex LC50 [2] [ppm] | LD50 [3, 4] [mg/kg] | also measured |
| --- | --- | --- | --- | --- |
| CCCCCCOS(=O)N(C)C(=O)Oc1cccc2c1OC(C)(C)C2 (centres unmarked) [Example I, 2,3-dihydro-2,2-dimethylbenzofuranyl-7(methyl)(hexoxysulfinyl)carbamate] | 13 | 0.0025 | 280 | – |
| CN(C(=O)Oc1cccc2c1OC(C)(C)C2)S(=O)OC(C)(C)C (centres unmarked) [II, 2,3-dihydro-2,2-dimethylbenzofuranyl-7(methyl)(t-butoxysulfinyl)carbamate] | 2.2 | 0.0058 | 40 | – |
| CCCCOS(=O)N(C)C(=O)Oc1cccc2c1OC(C)(C)C2 (centres unmarked) [III, 2,3-dihydro-2,2-dimethylbenzofuranyl-7(methyl)(n-butoxysulfinyl)carbamate] | 16 | – | 160 | – |
| CN(C(=O)Oc1cccc2c1OC(C)(C)C2)S(=O)Oc1ccccc1 (centres unmarked) [IV, 2,3-dihydro-2,2-dimethylbenzofuranyl-7(methyl)(phenoxysulfinyl)carbamate] | 6.4 | 0.0055 | 42 | – |
| CC(C)Oc1ccccc1OC(=O)N(C)S(=O)OC(C)(C)C (centres unmarked) [IX, 2-isopropoxyphenyl (methyl)(t-butoxysulfinyl)carbamate] | 65 | – | 400 | – |
| Cc1cccc(C)c1OS(=O)N(C)C(=O)Oc1cccc2c1OC(C)(C)C2 (centres unmarked) [V, 2,3-dihydro-2,2-dimethylbenzofuranyl-7(methyl)(2,6-dimethylphenoxysulfinyl)carbamate] | 13.5 | – | 100 | – |
| CCCCOS(=O)N(C)C(=O)Oc1cccc(C(C)C)c1 (centres unmarked) [VI, 3-isopropylphenyl (methyl)(n-butoxysulfinyl)carbamate] | 50 | – | – | – |
| CCCCCCOS(=O)N(C)C(=O)Oc1cccc(C(C)C)c1 (centres unmarked) [VII, 3-isopropylphenyl (methyl)(n-hexoxysulfinyl)carbamate] | 80 | – | > 1000 | – |
| CCCCCCOS(=O)N(C)C(=O)Oc1ccccc1OC(C)C (centres unmarked) [VIII, 2-isopropoxyphenyl (methyl)(n-hexoxysulfinyl)carbamate] | 42 | 0.01 | > 1000 | – |
| CCCCCCOS(=O)N(C)C(=O)ON=C(C)SC (centres unmarked) [X, S-methyl N-[N'-methyl-N'-hexoxysulfinylcarbamoyloxy]thioacetimidate] | – | – | 260 | LD50 [1, 5]: 6.5 mg/kg |
| CCCCOS(=O)N(C)C(=O)ON=C(C)SC (centres unmarked) [XI, S-methyl N-[N'-methyl-N'-butoxysulfinylcarbamoyloxy]thioacetimidate] | – | – | – | LD50 [1, 5]: 5.5 mg/kg |
| CCCCCCCCCCOS(=O)N(C)C(=O)ON=CC(C)(C)SC (centres unmarked) [XII, 2-methyl-2-(methylthio)propionaldehyde O-[(methyl)(decoxysulfinyl)carbamoyl]oxime] | – | 0.006 | 60 | LD50 [1, 5]: 11.5 mg/kg; toxicity to house flies compared with parent carbamate ([1]; compared with aldicarb / carbofuran): comparable toxicity; mammalian safety/toxicity compared with parent carbamate (Swiss white mice): much safer to mammals |
| CCCCCCOS(=O)N(C)C(=O)Oc1cccc2ccccc12 (centres unmarked) [XIII, 1-naphthyl(methyl)(hexoxysulfinyl)carbamate] | 360 | – | > 1000 | – |
| CNC(=O)O/N=C/C(C)(C)SC [aldicarb, 2-methyl-2-(methylthio)propionaldehyde 0-(methylcarbamoyl)oxime, reference compound] | – | – | – | LD50 ([3]; po, comparison value for parent aldicarb, read-out: LD50 (parent carbamate aldicarb, mammalian toxicity, text)): 0.3 to 0.5 mg/kg |
